Measurements published in patent publication US20250051307A1, “SALT OF 3,4-DIHYDROISOQUINOLINE COMPOUND AND USE THEREOF” (CSPC ZHONGQI PHARMACEUTICAL TECHNOLOGY(SHIJIAZHUANG) CO., …, priority 2021, published 2025).
Read-outs that look alike come from different tables or passages of the source. Marks after values point to notes of the source that are not given here. Blank lines part the entries; values can stand above or below the molecule they belong to.

How the values were obtained:
[1] = system: MV4-11 subcutaneous xenograft; assay: MV4-11 subcutaneous xenograft model, in vivo efficacy; design: species or system NOD-SCID mice; conditions: for Body Weight Change (%): 11 consecutive days; for d9 Tumor Volume (mm^3): 9th day after administration; for d0 Tumor Volume (mm^3): before grouping for administration, 100 mg/kg group; for RTV (d9): d9 tumor volume/d0 tumor volume; for Tumor Weight: end of experiment; for Tumor Weight / Tumor weight inhibition rate (%): 11 days; for Tumor weight inhibition rate (%): vs vehicle group
Description: Experimental female NOD-SCID mice, SPF grade, 4 to 5 weeks, were purchased from Beijing Vital River Laboratory Animal Technology Co., Ltd. The mice were intraperitoneally injected with cyclophosphamide at a dose of 100 mg/kg one day before cell inoculation. The human acute monocytic leukemia cell line MV4-11 (1×10^7/0.1 ml/mouse) was subcutaneously inoculated into forelimb axilla of mice to establish a subcutaneous xenograft model. When the tumor volumes reached about 110 mm^3 (10 days after inoculation), the mice were equally grouped according to the tumor volume, with 5 mice in each group, i.e., vehicle group (2% DMSO+98% (0.2 g/mL) hydroxypropyl-β-cyclodextrin) and test drug groups. For the test drug groups, the dose of administration was 100 mg/kg, the dosing volume was 10 mL/kg, the dosing frequency was BID, the tumor diameters were measured twice per week, and the data was recorded. The mice were administered for 11 consecutive days. When the experiment ended, the tumors were dissected and weighed.
The body weight growth rate, the tumor volume, and the tumor weight inhibition rate were calculated according to the following equations: body weight growth rate=X(Wi-W0)/XW0×100%, where Wi denoted the body weight of a mouse in each test drug group on the n^th day, and W0 denoted the body weight of a mouse in each test drug group at the beginning of administration; tumor volume (V)=½× a× b^2, where a and b denoted the long diameter and the short diameter of a tumor, respectively; d0 denoted before grouping for administration, d9 denoted the 9th day after administration, relative tumor volume (RTV)=d9 tumor volume/d0 tumor volume; tumor weight inhibition rate=(tumor weightvehicle group−tumor weighttest drug group)/tumor weightvehicle group×100%.

PRMT5 = PRMT5 (Homo sapiens (Human), UniProt O14744); assay: Radiometric assay for PRMT5 based on FlashPlate technology; assay type: biochemical
Description: The radiometric assay for PRMT5 based on FlashPlate technology was adopted to determine IC50 of the test compound.
After dissolved in dimethyl sulfoxide respectively, the test compounds were added into an Echo Qualified 384-well plate and diluted to the desired concentrations. The diluted test compounds were transferred from the Echo Qualified 384-well plate to a 384-well reaction plate using an Echo 550 instrument, and dimethyl sulfoxide was transferred into both the control and blank wells. […] At a volume of 15 μL/well, the 1.67× enzyme solution was added into wells of the 384-well reaction plate. […] The reaction plate was centrifuged at 1000 rpm for 1 min, and incubated at room temperature for 15 min. […] From each well of the test plate, 25 μL was measured and transferred to Flashplate and left at room temperature for 1 h. Thereafter, the Flashplate was washed with 0.1% Tween-20 solution three times. Readings were taken with MicroBeta 2. The data was converted into the inhibition rate data. Inhibition rate=(conversion ratecontrol well−conversion ratecompound well)/(conversion ratecontrol well−conversion rateblank well)×100%.

[2] = Pharmacokinetic experiment in SD rats; assay type: in vivo; conditions: 25 mg/kg by gavage; for Cmax / Tmax / AUC(0-t): male, Sprague-Dawley (SD), rat, po, plasma; for AUC(0-t): read-out: AUC0-24h
Description: SD rats (male, 180 g to 200 g, Beijing Vital River Laboratory Animal Technology Co., Ltd.) were administered with the test compounds (solvent: 2% DMSO+98% (0.2 g/mL) hydroxypropyl-β-cyclodextrin, dosing volume: 5 mL/kg) by gavage. Blood was collected from the orbits of the rats at different points in time (0.25, 0.5, 1, 2, 4, 8, 24 h) after administration. The collected whole blood was anticoagulated with heparin sodium and centrifuged at 3000 g to obtain rat plasma samples, and methanol was added thereto to precipitate proteins. The drug concentration in rat plasma after administration was determined by HPLC-MS/MS method. A drug concentration-time curve was plotted and the pharmacokinetic parameters were calculated. Pharmacokinetic behaviors of the compounds after administration in rats were described by means of the parameter estimation of non-compartmental model based on statistical moment theory.

[3] = Solubility determination in water and biological media; assay type: physicochemical; conditions: for solubility at 24 h: thermodynamic from solid, 37° C., solubility is in free state; for Solubility compared with the free base sample: water and FassIF media, vs Preparation Example 1
Source text: • FaSSIF: human fasted state simulated intestinal fluid; FeSSIF: human fed state simulated intestinal fluid; SGF: human fasted state simulated gastric fluid.

[4] = system: human acute monocytic leukemia cell line MV4-11; assay: MV4-11 MTT cell growth inhibition; assay type: cell-based
Source text: The complete medium required for the culture of human acute monocytic leukemia cell line MV4-11 (Shanghai Cell Bank) for experiment was IMDM (CatNO. 12440-053, gibco) supplemented with 10% FBS (Cat NO. SA311.02, cellmax). […] The experiment reagents included dimethyl sulfoxide (Tianjin Kemiou Chemical Reagent Co., Ltd.) and MTT (THIAZOLYL BLUE TETRAZOLIUM BROMIDE, CAS. NO. 298-93-1, VWR). The control compound GSK3326595 for experiment was homemade or commercially available. The test compound was encapsulated and stored at 4° C.
Dimethyl sulfoxide was used as a vehicle to fully dissolve the test compound, thereby formulating a stock solution at a concentration of 5×10^−2 mol/L. The stock solution was stored at −20° C. With the complete medium as diluent, the test compound was subjected to gradient dilution to afford dilutions at different concentrations for standby application. In a 96-well culture plate, the suspension of the human acute monocytic leukemia cell line MV4-11 in the complete medium, at a volume of 100 μL/well (2×10^3 cells/well), was added. […] The OD value at 550 nm was measured with a microplate reader. […] The cell growth inhibition rate was calculated according to the following equation: […]
According to the inhibition rate at each concentration, the half maximal inhibitory concentration IC50 value was calculated using the SPSS software.

[5] = Long-term (three months) stability of Crystal Form I; assay type: physicochemical
[6] = Solid stability of crystal forms at high temperature (XRPD); assay type: physicochemical; conditions: 60° C., sealed, 7 days
Source text: (§1) The samples were subjected to X-ray powder diffraction to investigate the stability of the samples under different conditions, and the results are shown in the following table.

[7] = Solid stability of crystal forms under different humidity conditions (XRPD); assay type: physicochemical; conditions: 7 days
Source text: as §1

[8] = vs positive control drug GSK3326595
[9] = FaSSIF (human fasted state simulated intestinal fluid), FassIF, read-out: 24 h solubility (mg/mL) FassIF
[10] = SGF (human fasted state simulated gastric fluid), simulated gastric fluid, SGF, read-out: 24 h solubility (mg/mL) SGF
[11] = water, read-out: 24 h solubility (mg/mL) Water

PRMT5, sequence (O14744 whole entry): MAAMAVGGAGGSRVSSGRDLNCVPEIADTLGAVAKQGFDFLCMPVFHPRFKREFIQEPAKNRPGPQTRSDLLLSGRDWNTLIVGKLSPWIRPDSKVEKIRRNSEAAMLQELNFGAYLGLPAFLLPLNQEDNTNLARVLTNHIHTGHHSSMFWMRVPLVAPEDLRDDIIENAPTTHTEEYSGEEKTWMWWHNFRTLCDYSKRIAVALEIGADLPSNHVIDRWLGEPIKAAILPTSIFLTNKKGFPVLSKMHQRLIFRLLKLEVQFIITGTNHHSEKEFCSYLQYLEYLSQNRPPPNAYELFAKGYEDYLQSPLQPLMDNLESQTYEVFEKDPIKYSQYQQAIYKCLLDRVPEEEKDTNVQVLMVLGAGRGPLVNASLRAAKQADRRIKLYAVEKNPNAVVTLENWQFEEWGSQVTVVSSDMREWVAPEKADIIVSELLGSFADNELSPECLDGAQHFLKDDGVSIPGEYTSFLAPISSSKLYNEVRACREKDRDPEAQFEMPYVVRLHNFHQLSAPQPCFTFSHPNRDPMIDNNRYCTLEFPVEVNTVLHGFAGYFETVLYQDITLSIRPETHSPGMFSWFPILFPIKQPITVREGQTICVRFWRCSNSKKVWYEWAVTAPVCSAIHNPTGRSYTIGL
PRMT5, sequence (Q9BQA1 whole entry partner): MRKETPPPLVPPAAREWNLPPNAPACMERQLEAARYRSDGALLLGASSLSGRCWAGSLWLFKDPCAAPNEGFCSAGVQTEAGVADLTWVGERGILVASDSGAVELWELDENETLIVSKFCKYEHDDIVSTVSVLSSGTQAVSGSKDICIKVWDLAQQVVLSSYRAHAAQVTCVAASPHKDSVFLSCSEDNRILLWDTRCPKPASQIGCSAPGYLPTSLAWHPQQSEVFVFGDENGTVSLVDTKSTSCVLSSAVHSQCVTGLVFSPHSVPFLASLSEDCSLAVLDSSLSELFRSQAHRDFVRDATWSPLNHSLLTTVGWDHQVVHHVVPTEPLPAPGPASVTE

SMILES: CON=C(C)C(=O)N1CCC(Nc2cc(C(=O)NC[C@H](O)CN3CCc4ccccc4C3)ncn2)CC1 [Compound of formula (A)]
Tumor-inhibitory activity in MV4-11 xenografts model ([1]; 100 mg/kg BID): significant tumor-inhibitory activity
Body Weight Change (%) ([1]; 100 mg/kg BID): −6.1%
d9 Tumor Volume (mm^3) ([1]; 100 mg/kg BID): 55.7 ± 19.7 ***## mm^3
d0 Tumor Volume (mm^3) [1]: 165.3 ± 27.5 mm^3
RTV (d9) ([1]; 100 mg/kg BID): 0.4 ± 0.1
Tumor Weight ([1]; 100 mg/kg BID): 0.0648 ± 0.0267 g
Tumor weight inhibition rate (%) ([1]; 100 mg/kg BID): 91.1%
IC50 (PRMT5; PRMT5 5 nM, [3H]-SAM, 25° C. 60 min, read-out: Enzymology (IC50)): 31 nM
Inhibitory activity at enzyme level compared with GSK3326595 (PRMT5; [8]): better inhibitory activities
Absorption in rats compared with GSK3326595 [2]: better absorbed
Cmax [2]: 2370 ng/mL
Tmax [2]: 0.333 h
AUC(0-t) [2]: 4410 ng·h/mL
solubility at 24 h [3, 9]: 1.7 mg/mL
solubility at 24 h [3, 10]: > 4.4 mg/mL
solubility at 24 h [3, 11]: 0.39 mg/mL
Inhibitory activity at cell level compared with GSK3326595 [4, 8]: better inhibitory activities

SMILES: CON=C(C)C(=O)N1CCC(Nc2cc(C(=O)NC[C@H](O)CN3CCc4ccccc4C3)ncn2)CC1.O=C(O)C[C@H](O)C(=O)O [Example 1]
Crystal Form after storage ([5]; 3 months, long-term stability): Crystal Form I
Purity after storage ([5]; 3 months, long-term stability): 99.32%
Initial purity ([5]; before long-term storage): 99.43%

SMILES: CON=C(C)C(=O)N1CCC(Nc2cc(C(=O)NC[C@H](O)CN3CCc4ccccc4C3)ncn2)CC1.O=C(O)C[C@H](O)C(=O)O [Example 2]
Crystal form after storage (XRPD) [6]: Crystal Form II
Crystal form after storage (XRPD) ([7]; 23° C./33% RH): Crystal Form II
Crystal form after storage (XRPD) ([7]; 25° C./60% RH): Crystal Form II
Crystal form under different humidity conditions (conclusion) [7]: unchanged

SMILES: CON=C(C)C(=O)N1CCC(Nc2cc(C(=O)NC[C@H](O)CN3CCc4ccccc4C3)ncn2)CC1.O=C(O)C(=O)O [Example 11]
solubility at 24 h [3, 9]: > 9.1 mg/mL
solubility at 24 h [3, 10]: > 9.2 mg/mL
solubility at 24 h [3, 11]: > 9.1 mg/mL
Solubility compared with the free base sample [3]: significantly higher

SMILES: CC(=O)N1CCC(Nc2cc(C(=O)NC[C@H](O)CN3CCc4ccccc4C3)ncn2)CC1 [GSK3326595, reference compound]
Body Weight Change (%) ([1]; 100 mg/kg BID): −6.8%
d9 Tumor Volume (mm^3) ([1]; 100 mg/kg BID): 135 ± 43** mm^3
d0 Tumor Volume (mm^3) [1]: 165.2 ± 23.1 mm^3
RTV (d9) ([1]; 100 mg/kg BID): 0.8 ± 0.2
Tumor Weight ([1]; 100 mg/kg BID): 0.1124 ± 0.0764 g
Tumor weight inhibition rate (%) ([1]; 100 mg/kg BID): 84.5%
Cmax [2]: 60.3 ng/mL
Tmax [2]: 2.67 h
AUC(0-t) [2]: 589 ng·h/mL
IC50 ([4]; Homo sapiens, MV4-11, 144 h, MTT on Day 6): 6.68 nM

Further lines, results first:

Crystal form after storage (XRPD) ([7]; 23° C./33% RH): Crystal Form III
Crystal form after storage (XRPD) ([7]; 25° C./60% RH): Crystal Form III
Crystal form under different humidity conditions (conclusion) [7]: unchanged
SMILES: CON=C(C)C(=O)N1CCC(Nc2cc(C(=O)NC[C@H](O)CN3CCc4ccccc4C3)ncn2)CC1.O=C(O)C[C@H](O)C(=O)O [Example 3]

Crystal form after storage (XRPD) ([7]; 23° C./33% RH): Crystal Form IV
Crystal form after storage (XRPD) ([7]; 25° C./60% RH): Crystal Form IV
Crystal form under different humidity conditions (conclusion) [7]: unchanged
SMILES: CON=C(C)C(=O)N1CCC(Nc2cc(C(=O)NC[C@H](O)CN3CCc4ccccc4C3)ncn2)CC1.O=C(O)C[C@H](O)C(=O)O [Example 4]

Crystal form after storage (XRPD) [6]: Crystal Form V
SMILES: CON=C(C)C(=O)N1CCC(Nc2cc(C(=O)NC[C@H](O)CN3CCc4ccccc4C3)ncn2)CC1.O=C(O)C[C@H](O)C(=O)O [Example 5]

solubility at 24 h [3, 9]: > 4.7 mg/mL
solubility at 24 h [3, 10]: > 4.8 mg/mL
solubility at 24 h [3, 11]: > 4.9 mg/mL
Solubility compared with the free base sample [3]: significantly higher
SMILES: CON=C(C)C(=O)N1CCC(Nc2cc(C(=O)NC[C@H](O)CN3CCc4ccccc4C3)ncn2)CC1.O=C(O)C[C@H](O)C(=O)O [Example 7]
